Test results reported in patent US20240409585A1, “MACROCYCLIC IMMUNOMODULATORS” (priority 2021, published 2024).
Bridge positions count the residues as written; N and C are the ends. Square brackets hold non-standard residues; d marks the D form. Peptide text beside a SMILES is read from it. * marks the point of attachment. ξ: configuration not given here. Phe(3-CF3) = N[C@@H](Cc1cccc(C(F)(F)F)c1)C(=O)O; Ala(morpholin-4-yl) = N[C@@H](CN1CCOCC1)C(=O)O; Phe(4-COOH) = N[C@@H](Cc1ccc(C(=O)O)cc1)C(=O)O; dPhe(4-CN) = N#Cc1ccc(C[C@@H](N)C(=O)O)cc1; Bip = N[C@@H](Cc1ccc(-c2ccccc2)cc1)C(=O)O; Phe(3-CN) = N#Cc1cccc(C[C@H](N)C(=O)O)c1; Phe(3-Me) = Cc1cccc(C[C@H](N)C(=O)O)c1; Val(3-OH) = CC(C)(O)[C@H](N)C(=O)O; aIle = CC[C@@H](C)[C@H](N)C(=O)O; 4Pal = N[C@@H](Cc1ccncc1)C(=O)O; 2Thi = N[C@@H](Cc1cccs1)C(=O)O; Cha = N[C@@H](CC1CCCCC1)C(=O)O; Cit = NC(=O)NCCC[C@H](N)C(=O)O; Ile(3ξ) = CCC(C)[C@H](N)C(=O)O; NMeD = CN[C@@H](CC(=O)O)C(=O)O; AllylGly = C=CC[C@H](N)C(=O)O; Thr(3ξ) = CC(O)[C@H](N)C(=O)O; ξCha = NC(CC1CCCCC1)C(=O)O; Carboxymethyl = O=C(O)C*; NMeA = CN[C@@H](C)C(=O)O; Orn = NCCC[C@H](N)C(=O)O; Dab = NCC[C@H](N)C(=O)O; Dap = NC[C@H](N)C(=O)O; ξV = CC(C)C(N)C(=O)O; ξC = NC(CS)C(=O)O

biological target: T1, PE-labeled human PD-L1-Ig binding to Jurkat cell line over-expressing human PD-1 (Jurkat-PD-1) (Homo sapiens, UniProt Q15116); experiment: Jurkat-PD-1 Cell Binding High-Content Screening Assay (CBA): Method 1; conditions: Jurkat HPDL1 PD1 IC50 (Method 1), cells printed in nM
T1 construct: expressed in transfected cells; host or cells: Jurkat
T1 sequence (Q15116 25-288): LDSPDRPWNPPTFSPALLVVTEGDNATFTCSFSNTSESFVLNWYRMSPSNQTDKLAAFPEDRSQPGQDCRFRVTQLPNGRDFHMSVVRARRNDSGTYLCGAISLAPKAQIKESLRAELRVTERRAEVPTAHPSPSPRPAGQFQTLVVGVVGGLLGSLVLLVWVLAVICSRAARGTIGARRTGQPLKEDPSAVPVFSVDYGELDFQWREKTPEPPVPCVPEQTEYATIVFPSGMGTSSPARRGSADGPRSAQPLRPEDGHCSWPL

| Compound | IC50 |
| --- | --- |
| CC(C)C[C@H]1NC(=O)[C@H](C)N(C)C(=O)[C@H](Cc2ccc(C(=O)O)cc2)NC(=O)[C@H](Cc2ccc(-c3ccccc3)cc2)NC(=O)[C@H](Cc2ccc(C(=O)O)cc2)NC(=O)[C@H](Cc2cccc(C(F)(F)F)c2)NC(=O)[C@H](CC(=O)O)NC(=O)[C@H](Cc2ccc(C(=O)O)cc2)NC(=O)[C@H](CN2CCOCC2)NC(=O)CSC[C@@H](C(=O)N[C@@H](CCN)C(N)=O)NC(=O)[C@H](CCC(=O)O)NC(=O)[C@H](C(C)C)NC(=O)[C@H](CC2CCCCC2)NC(=O)[C@H](CCN)NC1=O [Example 2268] ({CH2CO}-[Ala(morpholin-4-yl)][Phe(4-COOH)]D[Phe(3-CF3)][Phe(4-COOH)][Bip][Phe(4-COOH)][NMeA][dL][Dab][Cha]VEC[Dab]-NH2; thioether N-14) | 1.3 nM |

same assay, conditions: Jurkat-hPD-1 cells, PE-labeled PD-L1-Ig 20 nM final; read-out: Jurkat HPDL1 PD1 IC50 (uM) (Method 1)

| Compound | IC50 |
| --- | --- |
| CC(C)C[C@@H]1NC(=O)[C@H](CCN)NC(=O)[C@@H](CC(C)C)NC(=O)[C@H](C)N(C)C(=O)[C@H](CCC(=O)O)NC(=O)[C@H](Cc2ccc(-c3ccccc3)cc2)NC(=O)[C@H](C(C)C)NC(=O)[C@H](Cc2c[nH]c3ccccc23)NC(=O)[C@H](CC(=O)O)NC(=O)[C@H](Cc2ccc(O)cc2)NC(=O)[C@H](CC(N)=O)NC(=O)CSC[C@@H](C(=O)N[C@@H](C)C(N)=O)NC(=O)[C@H](CCCN)NC(=O)[C@H](C(C)C)NC1=O [Compound 1238] ({CH2CO}-NYDWV[Bip]E[NMeA][dL][Dab]LV[Orn]CA-NH2; thioether N-14) | 30 nM |
| CC(C)C[C@@H]1NC(=O)[C@H](CCCNC(=N)N)NC(=O)[C@@H](Cc2ccc(C#N)cc2)NC(=O)[C@H](C)N(C)C(=O)[C@H](CCCNC(=N)N)NC(=O)[C@H](Cc2ccc(-c3ccccc3)cc2)NC(=O)[C@H](C(C)C)NC(=O)[C@H](Cc2c[nH]c3ccccc23)NC(=O)[C@H](CC(=O)O)NC(=O)[C@H](Cc2ccc(O)cc2)NC(=O)[C@H](Cc2ccccc2)NC(=O)CSC[C@@H](C(=O)N[C@@H](C)C(N)=O)NC(=O)[C@H]([C@@H](C)O)NC(=O)[C@H](C(C)C)NC1=O [Compound 1107] ({CH2CO}-FYDWV[Bip]R[NMeA][dPhe(4-CN)]RLVTCA-NH2; thioether N-14) | 70 nM |
| CC[C@@H](C)[C@@H]1NC(=O)[C@H](Cc2ccc(-c3ccccc3)cc2)NC(=O)[C@H](CC(C)C)NC(=O)[C@H](Cc2c[nH]c3ccccc23)NC(=O)[C@H](CC(=O)O)NC(=O)[C@H](Cc2ccc(C(=O)O)cc2)NC(=O)[C@H](Cc2ccc(OCC(=O)O)cc2)NC(=O)CSC[C@@H](C(=O)N[C@@H](CCCCN)C(N)=O)NC(=O)[C@H](CC(=O)O)NC(=O)C(C(C)C)NC(=O)[C@H](CC(C)C)NC(=O)[C@H](CC(N)=O)NC(=O)[C@@H](CC(C)C)NC(=O)[C@H](C)N(C)C1=O (stereo partly drawn) [Compound 2105] ({CH2CO}-Y(Carboxymethyl)[Phe(4-COOH)]DWL[Bip][aIle][NMeA][dL]NL[ξV]DCK-NH2; thioether N-14) | 100 nM |
| Cc1cccc(C[C@@H]2NC(=O)[C@H](CC(=O)O)NC(=O)[C@H](Cc3ccc(O)cc3)NC(=O)[C@H](CC(N)=O)NC(=O)CSC[C@@H](C(=O)N[C@@H](CCN)C(N)=O)NC(=O)[C@H](CCC(=O)O)NC(=O)[C@H](C(C)(C)O)NC(=O)[C@H](CC3CCCCC3)NC(=O)[C@H](CCN)NC(=O)[C@@H](CC(C)C)NC(=O)[C@H](C)N(C)C(=O)[C@H](CCCNC(N)=O)NC(=O)[C@H](Cc3ccc(-c4ccccc4)cc3)NC(=O)[C@H](C(C)(C)O)NC2=O)c1 [Compound 1711] ({CH2CO}-NYD[Phe(3-Me)][Val(3-OH)][Bip][Cit][NMeA][dL][Dab][Cha][Val(3-OH)]EC[Dab]-NH2; thioether N-14) | 60 nM |
| CC(C)C[C@H]1NC(=O)[C@H](C)N(C)C(=O)[C@H](CCC(N)=O)NC(=O)[C@H](Cc2ccc(-c3ccccc3)cc2)NC(=O)[C@H](Cc2ccc(C(=O)O)cc2)NC(=O)[C@H](Cc2cccc(C(F)(F)F)c2)NC(=O)[C@H](CC(N)=O)NC(=O)[C@H](Cc2ccc(OCC(=O)O)cc2)NC(=O)[C@H](CN2CCOCC2)NC(=O)CSC[C@@H](C(=O)N[C@@H](CCN)C(N)=O)NC(=O)[C@H](CCCN)NC(=O)[C@H](C(C)C)NC(=O)[C@H](CC2CCCCC2)NC(=O)[C@H](CCN)NC1=O [Example 2280] ({CH2CO}-[Ala(morpholin-4-yl)]Y(Carboxymethyl)N[Phe(3-CF3)][Phe(4-COOH)][Bip]Q[NMeA][dL][Dab][Cha]V[Orn]C[Dab]-NH2; thioether N-14) | 140 nM |
| CCC(C)[C@@H]1NC(=O)[C@H](Cc2ccc(-c3ccccc3)cc2)NC(=O)[C@H](C(C)C)NC(=O)[C@H](Cc2c[nH]c3ccccc23)NC(=O)[C@H](CC(N)=O)NC(=O)[C@H](Cc2ccc(OCC(=O)O)cc2)NC(=O)[C@H](Cc2ccncc2)NC(=O)CSC[C@@H](C(=O)N[C@@H](C)C(=O)N[C@@H](CCCCN)C(N)=O)NC(=O)[C@H](C(C)O)NC(=O)[C@H](C(C)C)NC(=O)C(CC2CCCCC2)NC(=O)[C@H](CC(N)=O)NC(=O)[C@@H](CC(C)C)NC(=O)[C@H](C)N(C)C1=O (stereo partly drawn) [Compound 2018] ({CH2CO}-[4Pal]Y(Carboxymethyl)NWV[Bip][Ile(3ξ)][NMeA][dL]N[ξCha]V[Thr(3ξ)]CAK-NH2; thioether N-14) | 120 nM |
| CC(C)C[C@@H]1NC(=O)[C@H](CC(N)=O)NC(=O)[C@@H](CC(C)C)NC(=O)[C@H](C)N(C)C(=O)[C@H](CCCNC(=N)N)NC(=O)[C@H](Cc2ccc(-c3ccccc3)cc2)NC(=O)[C@H](C(C)C)NC(=O)[C@H](Cc2c[nH]c3ccccc23)NC(=O)[C@H](CC(=O)O)NC(=O)[C@H](Cc2ccc(O)cc2)NC(=O)[C@H](Cc2ccccc2)NC(=O)CSC[C@@H](C(=O)N[C@@H](C)C(N)=O)NC(=O)[C@H](CO)NC(=O)[C@H](C(C)C)NC1=O [Compound 1742] ({CH2CO}-FYDWV[Bip]R[NMeA][dL]NLVSCA-NH2; thioether N-14) | 20 nM |
| CC(C)C[C@@H]1NC(=O)[C@H](CCCCN)NC(=O)[C@@H](CC(C)C)NC(=O)[C@H](C)N(C)C(=O)[C@H](CCC(=O)O)NC(=O)[C@H](Cc2ccc(-c3ccccc3)cc2)NC(=O)[C@H](C(C)C)NC(=O)[C@H](Cc2c[nH]c3ccccc23)NC(=O)[C@H](CC(=O)O)NC(=O)[C@H](Cc2ccc(O)cc2)NC(=O)[C@H](Cc2ccncc2)NC(=O)CSC[C@@H](C(=O)N[C@@H](C)C(N)=O)NC(=O)[C@H](C(C)O)NC(=O)[C@H](C(C)C)NC1=O (stereo partly drawn) [Compound 2057] ({CH2CO}-[4Pal]YDWV[Bip]E[NMeA][dL]KLV[Thr(3ξ)]CA-NH2; thioether N-14) | 40 nM |
| Cc1cccc(C[C@@H]2NC(=O)[C@H](CC(=O)O)NC(=O)[C@H](Cc3ccc(OCC(=O)O)cc3)NC(=O)[C@H](CCN)NC(=O)CSC[C@@H](C(=O)N[C@@H](CCN)C(N)=O)NC(=O)[C@H](C(C)O)NC(=O)[C@H](C(C)C)NC(=O)[C@H](CC3CCCCC3)NC(=O)[C@H](CCN)NC(=O)[C@@H](CC(C)C)NC(=O)[C@H](C)N(C)C(=O)[C@H](Cc3ccc(OCC(=O)O)cc3)NC(=O)[C@H](Cc3ccc(-c4ccccc4)cc3)NC(=O)[C@H](Cc3ccc(OCC(=O)O)cc3)NC2=O)c1 (stereo partly drawn) [Compound 2154] ({CH2CO}-[Dab]Y(Carboxymethyl)D[Phe(3-Me)]Y(Carboxymethyl)[Bip]Y(Carboxymethyl)[NMeA][dL][Dab][Cha]V[Thr(3ξ)]C[Dab]-NH2; thioether N-14) | 10 nM |
| C=CC[C@@H]1NC(=O)[C@H](CC(C)C)NC(=O)[C@H](CC(N)=O)NC(=O)[C@@H](CC(C)C)NC(=O)[C@H](C)N(C)C(=O)[C@H](CC=C)NC(=O)[C@H](Cc2ccc(-c3ccccc3)cc2)NC(=O)[C@H](CC(C)C)NC(=O)[C@H](Cc2cccc(C)c2)NC(=O)[C@H](CC(=O)O)NC(=O)[C@H](Cc2ccncc2)NC(=O)[C@H](Cc2ccc(OCC(=O)O)cc2)NC(=O)CSCC(C(=O)NCC(N)=O)NC(=O)[C@H](CO)NC1=O (stereo partly drawn) [Compound 1881] ({CH2CO}-Y(Carboxymethyl)[4Pal]D[Phe(3-Me)]L[Bip][AllylGly][NMeA][dL]NL[AllylGly]S[ξC]G-NH2; thioether N-14) | 100 nM |
| CC(C)C[C@@H]1NC(=O)[C@H](C(C)C)NC(=O)[C@H](Cc2ccccc2)NC(=O)[C@H](CC(=O)O)N(C)C(=O)[C@H](CCCNC(=N)N)NC(=O)[C@H](Cc2ccc(-c3ccccc3)cc2)NC(=O)[C@H](C(C)C)NC(=O)[C@H](Cc2c[nH]c3ccccc23)NC(=O)[C@H](CC(=O)O)NC(=O)[C@H](Cc2ccc(O)cc2)NC(=O)[C@H](Cc2ccccc2)NC(=O)CSC[C@@H](C(=O)NCC(N)=O)NC(=O)[C@H](CO)NC(=O)[C@H](C(C)C)NC1=O [Compound 1008] ({CH2CO}-FYDWV[Bip]R[NMeD]FVLVSCG-NH2; thioether N-14) | 700 nM |
| CCC(C)[C@@H]1NC(=O)[C@H](Cc2ccc(-c3ccccc3)cc2)NC(=O)[C@H](C(C)C)NC(=O)[C@H](Cc2c[nH]c3ccccc23)NC(=O)[C@H](CC(=O)O)NC(=O)[C@H](Cc2ccc(O)cc2)NC(=O)[C@H](Cc2cccs2)NC(=O)CSC[C@@H](C(=O)N2CCC[C@H]2C(N)=O)NC(=O)[C@H](C(C)O)NC(=O)[C@H](C(C)(C)O)NC(=O)[C@H](CC2CCCCC2)NC(=O)[C@H](CC(N)=O)NC(=O)[C@@H](CC(C)C)NC(=O)[C@H](C)N(C)C1=O (stereo partly drawn) [Compound 2174] ({CH2CO}-[2Thi]YDWV[Bip][Ile(3ξ)][NMeA][dL]N[Cha][Val(3-OH)][Thr(3ξ)]CP-NH2; thioether N-14) | 310 nM |
| CC(C)C[C@@H]1NC(=O)[C@H](CCN)NC(=O)[C@@H](CC(C)C)NC(=O)[C@H](C)N(C)C(=O)[C@H](CCCNC(=N)N)NC(=O)[C@H](Cc2ccc(-c3ccccc3)cc2)NC(=O)[C@H](C(C)C)NC(=O)[C@H](Cc2cccc(C#N)c2)NC(=O)[C@H](CC(=O)O)NC(=O)[C@H](Cc2ccc(OCC(=O)O)cc2)NC(=O)[C@H](CN)NC(=O)CSC[C@@H](C(=O)N[C@@H](C)C(N)=O)NC(=O)[C@H]([C@@H](C)O)NC(=O)[C@H](C(C)C)NC1=O [Compound 1449] ({CH2CO}-[Dap]Y(Carboxymethyl)D[Phe(3-CN)]V[Bip]R[NMeA][dL][Dab]LVTCA-NH2; thioether N-14) | 170 nM |
